Measured values reported in ChEMBL document CHEMBL6121016, “Design, Synthesis, and Biological Evaluation of 1,3,4-Thiadiazole Derivatives as Novel Potent Peptide Deformylase Inhibitors for Combating Drug-Resistant Gram-Positive and -Negative Bacteria” (J Med Chem, 2025).
≈ marks a conversion by molar mass, not a printed value.

Legend:
Assay type in all cases: functional
Conditions in all cases: time 16-18 hrs
Staphylococcus aureus [1] = assay: Antibacterial activity against methicillin-susceptible Staphylococcus aureus ATCC 29213 after 16 to 18 hrs by broth microdilution method
Staphylococcus aureus [2] = assay: Antibacterial activity against methicillin-susceptible Staphylococcus aureus ATCC 13709 after 16 to 18 hrs by broth microdilution method
Staphylococcus aureus [3] = assay: Antibacterial activity against methicillin-resistant Staphylococcus aureus ATCC 33591 after 16 to 18 hrs by broth microdilution method
[4] = test system: Staphylococcus epidermidis; assay: Antibacterial activity against Staphylococcus epidermidis after 16 to 18 hrs by broth microdilution method
Staphylococcus aureus [5] = assay: Antibacterial activity against methicillin-resistant Staphylococcus aureus Bio-090770 after 16 to 18 hrs by broth microdilution method
Klebsiella pneumoniae = assay: Antibacterial activity against Klebsiella pneumoniae CICC 21611 after 16 to 18 hrs by broth microdilution method
Escherichia coli = assay: Antibacterial activity against Escherichia coli ATCC 25922 after 16 to 18 hrs by broth microdilution method
Acinetobacter baumannii [6] = assay: Antibacterial activity against Acinetobacter baumannii Bio 34235 after 16 to 18 hrs by broth microdilution method
Staphylococcus aureus [7] = assay: Antibacterial activity against methicillin-resistant Staphylococcus aureus ATCC 43300 after 16 to 18 hrs by broth microdilution method
Staphylococcus aureus [8] = assay: Antibacterial activity against methicillin-susceptible Staphylococcus aureus ATCC 25923 after 16 to 18 hrs by broth microdilution method
Acinetobacter baumannii [9] = assay: Antibacterial activity against drug-resistant Acinetobacter baumannii Bio 53272 after 16 to 18 hrs by broth microdilution method

Row | Structure (SMILES) | MIC (Staphylococcus aureus [1]) [µg/mL] | MIC (Staphylococcus aureus [2]) [µg/mL] | MIC (Staphylococcus aureus [3]) [µg/mL] | MIC [4] [µg/mL] | MIC (Staphylococcus aureus [5]) [µg/mL] | MIC (Klebsiella pneumoniae) [µg/mL] | MIC (Escherichia coli) [µg/mL] | MIC (Acinetobacter baumannii [6]) [µg/mL] | MIC (Staphylococcus aureus [7]) [µg/mL] | MIC (Staphylococcus aureus [8]) [µg/mL] | MIC (Acinetobacter baumannii [9]) [µg/mL]
1 | CCCC[C@H](CN(O)C=O)C(=O)N1CCC[C@H]1c1nnc(-c2cccc3ccccc23)s1 | 16 (≈ 35.4 µM) | 16 (≈ 35.4 µM) | 4 (≈ 8.84 µM) | 2 (≈ 4.42 µM) | 16 (≈ 35.4 µM) | > 16 | > 16 | > 16 | 16 (≈ 35.4 µM) | 16 (≈ 35.4 µM) | > 16
2 | CCCC[C@H](CN(O)C=O)C(=O)N1CCC[C@H]1c1nnc(Cc2cccs2)s1 | 2 (≈ 4.73 µM) | 2 (≈ 4.73 µM) | 0.5 (≈ 1.18 µM) | 2 (≈ 4.73 µM) | 2 (≈ 4.73 µM) | > 16 | > 16 | 16 (≈ 37.9 µM) | 1 (≈ 2.37 µM) | 2 (≈ 4.73 µM) | 16 (≈ 37.9 µM)
3 | CCCC[C@H](CN(O)C=O)C(=O)N1CCC[C@H]1c1nnc(-c2ccc(C(F)(F)F)cc2F)s1 | 2 (≈ 4.09 µM) | 2 (≈ 4.09 µM) | 0.25 (≈ 0.512 µM) | 4 (≈ 8.19 µM) | 1 (≈ 2.05 µM) | > 16 | > 16 | > 16 | 1 (≈ 2.05 µM) | 2 (≈ 4.09 µM) | > 16
4 | CCCC[C@H](CN(O)C=O)C(=O)N1CCC[C@H]1c1nnc(-c2ccc([N+](=O)[O-])cc2)s1 | 0.5 (≈ 1.12 µM) | 0.5 (≈ 1.12 µM) | 0.25 (≈ 0.559 µM) | 1 (≈ 2.23 µM) | 1 (≈ 2.23 µM) | > 16 | > 16 | > 16 | 0.25 (≈ 0.559 µM) | 0.5 (≈ 1.12 µM) | 8 (≈ 17.9 µM)
5 | CCCC[C@H](CN(O)C=O)C(=O)N1CCC[C@H]1c1nnc(-c2ccccc2)s1 | 8 (≈ 19.9 µM) | 2 (≈ 4.97 µM) | 2 (≈ 4.97 µM) | 4 (≈ 9.94 µM) | 8 (≈ 19.9 µM) | > 16 | > 16 | > 16 | 4 (≈ 9.94 µM) | 4 (≈ 9.94 µM) | > 16
6 | CCCC[C@H](CN(O)C=O)C(=O)N1CCC[C@H]1c1nnc(-c2ccns2)s1 | 1 (≈ 2.44 µM) | 1 (≈ 2.44 µM) | 0.25 (≈ 0.61 µM) | 0.5 (≈ 1.22 µM) | 2 (≈ 4.88 µM) | 16 (≈ 39.1 µM) | 64 (≈ 156 µM) | 32 (≈ 78.1 µM) | 0.5 (≈ 1.22 µM) | 1 (≈ 2.44 µM) | 16 (≈ 39.1 µM)
7 | CCCC[C@H](CN(O)C=O)C(=O)N1CCC[C@H]1c1nnc(-c2ccccc2OC)s1 | 0.5 (≈ 1.16 µM) | 1 (≈ 2.31 µM) | 2 (≈ 4.62 µM) | 2 (≈ 4.62 µM) | 2 (≈ 4.62 µM) | > 16 | 16 (≈ 37 µM) | 16 (≈ 37 µM) | 0.5 (≈ 1.16 µM) | 1 (≈ 2.31 µM) | 16 (≈ 37 µM)
8 | CCCC[C@H](CN(O)C=O)C(=O)N1CCC[C@H]1c1nnc(C2CCCC2)s1 | 2 (≈ 5.07 µM) | 2 (≈ 5.07 µM) | 0.5 (≈ 1.27 µM) | 1 (≈ 2.53 µM) | 2 (≈ 5.07 µM) | > 16 | > 16 | > 16 | 0.5 (≈ 1.27 µM) | 1 (≈ 2.53 µM) | 8 (≈ 20.3 µM)
9 | CN[C@H](CC(C)C)C(=O)N[C@H]1C(=O)N[C@@H](CC(N)=O)C(=O)N[C@H]2C(=O)N[C@H]3C(=O)N[C@H](C(=O)N[C@H](C(=O)O)c4cc(O)cc(O)c4-c4cc3ccc4O)[C@H](O)c3ccc(c(Cl)c3)Oc3cc2cc(c3O[C@@H]2O[C@H](CO)[C@@H](O)[C@H](O)[C@H]2O[C@H]2C[C@](C)(N)[C@H](O)[C@H](C)O2)Oc2ccc(cc2Cl)[C@H]1O [VANCOMYCIN] | – | – | – | 16 (≈ 11 µM) | – | 16 (≈ 11 µM) | 16 (≈ 11 µM) | 16 (≈ 11 µM) | 0.25 (≈ 0.173 µM) | – | 16 (≈ 11 µM)
10 | CCCC[C@H](CN(O)C=O)C(=O)N1CCC[C@H]1c1nnc(-c2c(F)cccc2[N+](=O)[O-])s1 | 2 (≈ 4.3 µM) | 2 (≈ 4.3 µM) | 1 (≈ 2.15 µM) | 4 (≈ 8.59 µM) | 2 (≈ 4.3 µM) | > 16 | > 16 | > 16 | 2 (≈ 4.3 µM) | 2 (≈ 4.3 µM) | > 16
11 | CCCC[C@H](CN(O)C=O)C(=O)N1CCC[C@H]1c1nnc(-c2ccc[nH]2)s1 | 1 (≈ 2.55 µM) | 1 (≈ 2.55 µM) | 0.25 (≈ 0.639 µM) | 0.5 (≈ 1.28 µM) | 4 (≈ 10.2 µM) | > 16 | > 16 | > 16 | 0.5 (≈ 1.28 µM) | 1 (≈ 2.55 µM) | > 16
12 | CCCC[C@H](CN(O)C=O)C(=O)N1CCC[C@H]1c1nnc(-c2ccc(Br)s2)s1 | 2 (≈ 4.1 µM) | 2 (≈ 4.1 µM) | 0.25 (≈ 0.513 µM) | 1 (≈ 2.05 µM) | 2 (≈ 4.1 µM) | 32 (≈ 65.6 µM) | 64 (≈ 131 µM) | 32 (≈ 65.6 µM) | 0.25 (≈ 0.513 µM) | 1 (≈ 2.05 µM) | 16 (≈ 32.8 µM)
13 | CCCC[C@H](CN(O)C=O)C(=O)N1CCC[C@H]1c1nnc(C2CC2)s1 | 4 (≈ 10.9 µM) | 2 (≈ 5.46 µM) | 1 (≈ 2.73 µM) | 0.5 (≈ 1.36 µM) | 4 (≈ 10.9 µM) | > 16 | > 16 | > 16 | 1 (≈ 2.73 µM) | 2 (≈ 5.46 µM) | > 16
14 | CCCC[C@H](CN(O)C=O)C(=O)N1CCC[C@H]1c1nnc(-c2ccc(-c3ccccc3)cc2)s1 | 2 (≈ 4.18 µM) | 2 (≈ 4.18 µM) | 1 (≈ 2.09 µM) | > 16 | 2 (≈ 4.18 µM) | > 16 | > 16 | > 16 | 1 (≈ 2.09 µM) | 2 (≈ 4.18 µM) | > 16
15 | CCCC[C@H](CN(O)C=O)C(=O)N1CCC[C@H]1c1nnc(-c2cc(C)nn2C)s1 | 1 (≈ 2.38 µM) | 1 (≈ 2.38 µM) | 0.25 (≈ 0.594 µM) | 1 (≈ 2.38 µM) | 1 (≈ 2.38 µM) | 32 (≈ 76.1 µM) | 64 (≈ 152 µM) | 32 (≈ 76.1 µM) | 0.25 (≈ 0.594 µM) | 1 (≈ 2.38 µM) | 16 (≈ 38 µM)
16 | CCCC[C@H](CN(O)C=O)C(=O)N1CCC[C@H]1c1nnc(-c2ccncc2)s1 | 0.5 (≈ 1.24 µM) | 0.5 (≈ 1.24 µM) | 0.25 (≈ 0.62 µM) | 0.5 (≈ 1.24 µM) | 1 (≈ 2.48 µM) | 32 (≈ 79.3 µM) | 128 (≈ 317 µM) | 64 (≈ 159 µM) | 0.5 (≈ 1.24 µM) | 1 (≈ 2.48 µM) | 32 (≈ 79.3 µM)
17 | CCCC[C@H](CN(O)C=O)C(=O)N1CCC[C@H]1c1nnc(-c2ccco2)s1 | 2 (≈ 5.1 µM) | 1 (≈ 2.55 µM) | 0.5 (≈ 1.27 µM) | 0.5 (≈ 1.27 µM) | 2 (≈ 5.1 µM) | 32 (≈ 81.5 µM) | 64 (≈ 163 µM) | 16 (≈ 40.8 µM) | 0.5 (≈ 1.27 µM) | 4 (≈ 10.2 µM) | 16 (≈ 40.8 µM)
18 | CCCC[C@H](CN(O)C=O)C(=O)N1CCC[C@H]1c1nnc(CCC)s1 | 2 (≈ 5.43 µM) | 2 (≈ 5.43 µM) | 1 (≈ 2.71 µM) | 2 (≈ 5.43 µM) | 4 (≈ 10.9 µM) | > 16 | > 16 | > 16 | 1 (≈ 2.71 µM) | 2 (≈ 5.43 µM) | > 16
19 | CCCC[C@H](CN(O)C=O)C(=O)N1CCC[C@H]1c1nnc(-c2ccc(C)cc2)s1 | 1 (≈ 2.4 µM) | 1 (≈ 2.4 µM) | 0.5 (≈ 1.2 µM) | 2 (≈ 4.8 µM) | 1 (≈ 2.4 µM) | > 16 | 16 (≈ 38.4 µM) | > 16 | 1 (≈ 2.4 µM) | 1 (≈ 2.4 µM) | 8 (≈ 19.2 µM)
20 | CCCC[C@H](CN(O)C=O)C(=O)N1CCC[C@H]1c1nnc(C)s1 | 4 (≈ 11.7 µM) | 4 (≈ 11.7 µM) | 1 (≈ 2.94 µM) | 0.25 (≈ 0.734 µM) | 4 (≈ 11.7 µM) | > 16 | 16 (≈ 47 µM) | > 16 | 4 (≈ 11.7 µM) | 4 (≈ 11.7 µM) | 8 (≈ 23.5 µM)
